Source: patent US20260185980A1, “METHOD OF PREVENTING AND/OR REDUCING METASTASIS OF TUMOR CELLS, PREVENTING OR REDUCING SENESCENCE, INHIBITING DIFFERENTIATION AND OF REDUCING INFLAMMATION” (Albert-Ludwigs-Universitaet, priority 2022, published 2026)
Peptide text beside a SMILES is read from it. * marks the point of attachment. Cbz = O=C(OCc1ccccc1)*; CH2F = FC*

What was measured:
[1] = target: T1, caspase-activated CAD (Homo sapiens, UniProt O76075); assay: Assay B: Inhibition of caspase-activated CAD (ABT-737 plus S63845, γH2AX); assay type: cell-based; settings: HeLa229-CTRL3 cells, compound pre-treatment 1 hour, ABT-737 50 nM plus S63845 250 nM 2.5 hours
T1 construct: endogenous in cells; host or cells: HeLa229-CTRL3 cells (LentiCRISPRV2_puro with non-targeted gRNA)
T1 sequence (O76075 1-338): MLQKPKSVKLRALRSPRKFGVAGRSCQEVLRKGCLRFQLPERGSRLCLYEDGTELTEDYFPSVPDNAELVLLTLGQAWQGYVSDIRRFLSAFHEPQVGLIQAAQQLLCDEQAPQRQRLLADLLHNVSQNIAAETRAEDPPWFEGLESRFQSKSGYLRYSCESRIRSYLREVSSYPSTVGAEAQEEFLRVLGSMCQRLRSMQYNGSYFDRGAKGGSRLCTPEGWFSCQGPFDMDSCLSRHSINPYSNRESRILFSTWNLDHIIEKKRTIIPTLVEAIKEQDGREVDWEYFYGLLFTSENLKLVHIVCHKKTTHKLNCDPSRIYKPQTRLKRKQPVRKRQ
Experimental: FIG. 12 Activity of compounds against caspase-activated CAD A, HeLa229-CTRL3 cells (transduced with a LentiCRISPRV2_puro virus encoding a non-targeted gRNA) or Hela229 cells transduced with a CAD-targeted LentiCrisprV2 virus (resulting in CAD-deficient cells (CAD KO)) were seeded as described in FIG. 11 and stimulated with […] ABT-737 [50 nM] plus S63845 [250 nM] for 2.5 hours the next day. Subsequent analysis of the cells was performed as described in FIG. 11.
FIG. 12B, HeLa229-CTRL3 cells were seeded as in A and pre-treated (or not) with the indicated compounds and concentrations (Comp) for 1 hour, followed by treatment with ABT-737 plus […] for 2.5 hours. Proteins were detected as described in FIG. 11.
While in the screening we activated CAD with auxin-induced degradation of its inhibitor, CAD is physiologically activated by caspases. […] Test compounds were added 1 h previously. The activity of CAD was measured by the DDR as above (γH2AX). […] The compounds that will be used to inhibit CAD are shown in boxes. Such preferred compounds are: CBN16; CBN17; CBN62; CBN65; CBN66; CBN68; MB4; CD9; CD22 and MB26.

[2] = target: T2, CAD (Homo sapiens, UniProt O76075); assay: Assay A: Inhibition of the CAD-dependent DNA-damage response (DDR), γH2AX Western blot; assay type: cell-based; settings: HeLa229-Tir1-iCAD-mAID-GFP cells, compound 10 μM pre-incubated 1 hour, auxin 5 μM 4 hours
T2 construct: endogenous in cells; host or cells: HeLa229-Tir1-iCAD-mAID-GFP cells
T2 sequence (O76075 1-338): T1 sequence (O76075 1-338)
Experimental: Cells were seeded, pre-incubated with the individual compounds and treated with auxin. The DDR (a consequence of CAD-activity) was measured by Western blotting for the marker γH2AX. […] Such preferred compounds are: MB4, MB26; MB33; MB37; CBN16; CBN17; CBN40; CBN62; CBN65; CBN66; CBN68; CD9 and CD22.
FIG. 11 Confirmation of CAD-inhibition: auxin-dependent DDR. HeLa229-Tir1-iCAD-mAID-GFP cells were seeded on a 48-well plate (50,000 cells/well). 24 hours later, cells were pre-incubated (or not) with the indicated compounds (Comp, 10 μM) for 1 hour, followed by auxin treatment [5 μM] for 4 hours. Cells were lysed in Laemmli buffer and lysates were loaded onto SDS-PAGE followed by Western blotting against the indicated proteins. The DNA damage marker γH2AX was used as an indicator of CAD activity. The two left lanes of each gel are negative and positive controls (without and with auxin but without compound; instead, DMSO was used as solvent control). Compounds are indicated at the top.

[3] = test system: cancer cells; assay: Aggressive cancer growth in vitro (migration, invasion through a basement membrane, colony formation on soft agar); assay type: cell-based; settings: caspase-inhibition by the pan-caspase-inhibitor
Description: A, migratory activity of cells with or without CAD (scratch assay). Percentages of the area closed upon scratch are given. In this assay, a monolayer of cells is mechanically scratched, and the cells migrate back to fill the gap. The speed with which they migrate is a measure of their migratory capacity.
B-D invasion through a basement membrane (number of cells are given that had invaded).
E, colony formation in soft agar (number of colonies). The invasion assay uses a basement membrane in a culture dish. The cells are seeded on top of the membrane, and after a predetermined time (here: 24 h), the number of cells at the bottom of the membrane is determined. This is a measure of the capacity of the cells to invade tissue. Colony formation measures a capacity also termed ‘anchorage-independent growth’. It is a particular capacity of metastatic cells to be able to grow to colonies without support from other cells of solid support (as in a plastic dish). Individual cells are seeded in soft agar to immobilize them and to test whether the single cells can grow and form colonies, a feature of metastatic cells. The number of colonies formed is then measured.
The cell lines and conditions were described in the legend to FIG. 1. zVAD, caspase-inhibitor zVAD-fmk. Ctrl., control cells; the other cell lines are labelled according to their genetic modification (gene deletion; Bcl-XL-overexpression). […]

[4] = test system: HeLa cells; assay: Chromosomal missegregation (CIN) and micronuclei in cancer cells; assay type: cell-based, human; settings: cells incubated for one day with caspase-inhibitor
Description: A, the various pictures of chromosomal missegregation/misalignment are shown as examples (left) and enumerated in HeLa cells (cervical carcinoma line; ctrl., control; CAD, lacking CAD; STING, lacking STING; STING is not relevant to this invention).
C, missegregation in HeLa cells with inhibition in the mitochondrial apoptosis apparatus. Symbols as in A. zVAD-fmk is a small molecule pan-caspase-inhibitor. Apaf-1 is an adapter protein of caspase-9 that is required for caspase-activation upon release of cytochrome c from mitochondria. Both Bax and Bak can directly release cytochrome c, and the presence of at least one of them is required for mitochondrial apoptosis. Bcl-XL is a mitochondrial protein that blocks the activation and activity of Bax and Bak and thereby inhibits apoptosis. […]
Metastasis is linked in the literature to chromosomal instability (CIN), most likely because DNA-ligands are generated that stimulate the cells. […] This is clear because cancer cells modified to lack CAD or components of the (CAD-activating) mitochondrial apoptosis apparatus, or where apoptosis signaling was blocked using a chemical caspase inhibitor (zVAD-fmk), all show reduced CIN (measured as chromosomal missegregation, for instance as chromatin-bridges in dividing cells) and numbers of MN (FIG. 1). […]

SMILES | CAD-inhibitory activity against caspase-activated CAD (γH2AX) [1] | Inhibition of auxin-dependent DDR (γH2AX) [2] | aggressive growth in vitro (migration, invasion, colony formation) [3] | CIN (chromosomal missegregation) [4] | numbers of MN (micronuclei) [4]
O=C1/C(=C/c2ccccn2)N2CCC1CC2 [CBN16, (2Z)-2-(pyridin-2-ylmethylidene)-1-azabicyclo[2.2.2]octan-3-one] | CAD-inhibitory activity | blocked the DDR |  |  | 
CC(=O)Nc1nc([N+](=O)[O-])n(-c2ccccc2)n1 [CBN17, N-(5-nitro-1-phenyl-1,2,4-triazol-3-yl)acetamide] | CAD-inhibitory activity | blocked the DDR |  |  | 
COc1cc(/C=C2/CCC/C(=C\c3ccc(O)c(OC)c3)C2=O)ccc1O [CBN40, (2E,6Z)-2,6-bis[(4-hydroxy-3-methoxyphenyl)methylidene]cyclo-hexan-1-one] |  | blocked the DDR |  |  | 
O=C(Cn1ncc(Cl)c(Cl)c1=O)Nc1ccc(N2CCCC2)cc1 [CBN62, 2-(4,5-dichloro-6-oxopyridazin-1-yl)-N-(4-pyrrolidin-1-ylphenyl)acetamide] | CAD-inhibitory activity | blocked the DDR |  |  | 
O=C1NC(=S)NC(=O)C1=Cc1c2ccccc2cc2ccccc12 [CBN65, 5-(anthracen-9-ylmethylidene)-2-sulfanylidene-1,3-diazinane-4,6-dione] | CAD-inhibitory activity | blocked the DDR |  |  | 
Cc1nn(Cc2ccc(Cl)c(Cl)c2)c(C)c1NC(=O)CCCS(=O)(=O)c1nc(-c2cccs2)cc(C(F)(F)F)n1 [CBN68, N-[1-[(3,4-dichlorophenyl)methyl]-3,5-dimethylpyrazol-4-yl]-4-[4-thiophen-2-yl-6-(trifluoromethyl)pyrimidin-2-yl]sulfonylbutanamide] | CAD-inhibitory activity | blocked the DDR |  |  | 
Clc1ncnc2c1C(c1ccc(Br)cc1)c1c(Cl)ncnc1O2 [CD9, 9-(4-bromophenyl)-7,11-dichloro-2-oxa-4,6,12,14-tetrazatricyclo[8.4.0.0^3,8] tetradeca-1(10),3(8),4,6,11,13-hexaene] | CAD-inhibitory activity | blocked the DDR |  |  | 
O=c1c(Cl)c(Cl)cnn1-c1ccccc1 [CD22, 4,5-dichloro-2-phenylpyridazin-3-one] | CAD-inhibitory activity | blocked the DDR |  |  | 
O=[N+]([O-])c1ccc(C=Nc2cc(C(F)(F)F)ccc2N2CCOCC2)s1 [MB4, N-[2-morpholin-4-yl-5-(trifluoromethyl)phenyl]-1-(5-nitrothiophen-2-yl)methanimine] | CAD-inhibitory activity | blocked the DDR |  |  | 
Cc1ccc(Sc2ccc([N+](=O)[O-])c3nonc23)cc1 [MB26, 4-(4-methylphenyl)sulfanyl-7-nitro-2,1,3-benzoxadiazole] | CAD-inhibitory activity | blocked the DDR |  |  | 
COc1cc(/C=C2\CCc3ccccc3C2=O)cc(OC)c1OC [MB33, (2E)-2-[(3,4,5-trimethoxyphenyl)methylidene]-3,4-dihydronaphthalen-1-one] |  | blocked the DDR |  |  | 
COc1cc(/C=C2\CCc3ccccc3C2=O)cc(OC)c1 [MB37, (2E)-2-[(3,5-dimethoxyphenyl)methylidene]-3,4-dihydronaphthalen-1-one] |  | blocked the DDR |  |  | 
COC(=O)C[C@H](NC(=O)[C@H](C)NC(=O)[C@@H](NC(=O)OCc1ccccc1)C(C)C)C(=O)CF [zVAD-fmk] (Cbz-Val-Ala-Asp(OMe)-CH2F) |  |  | less aggressive growth | reduced CIN | reduced
